Assay results from patent publication US7387779B2, “Anti-angiogenic proteins and fragments and methods of use thereof” (Beth Israel Deaconess Medical Center, priority 1998, dated 2008).
Several values for one entry are separate records, joined by “and”; a condition that tells them apart may be missing. Identical values can stand only once. Like-named read-outs stand apart in the source and are kept apart here.

Experiments:
[1] = test system: MDAMB-435 tumor xenografts; assay: MDAMB-435 human breast orthotopic xenograft (Example 57); format: in vivo, nude NCRNU mice; conditions: four weeks; for Final Tumor Weight (V/Vo) ± SEM: control 3.77 ± 0.38
Protocol: Female nude NCRNU mice, 5-6 weeks old, weighing approximately 20 grams, were implanted with 2×10^6 MDAMB-435 cells into the subaxillary mammary fat pad. When the tumors were 100 mm^3, the animals were pair-matched into treatment and control groups. Each group contained 6-7 tumored mice, each of which was ear-tagged and followed individually throughout the experiment. Initial doses of T8 or TP3 peptide or vehicle control were given on the day of pair-matching (Day 0), and were administered via intraperitoneal (i.p.) injection at doses indicated. Mice were weighed twice weekly, and tumor measurements were taken by calipers twice weekly, starting on Day 1. These tumor measurements were converted to tumor volume by a well-known formula, (V=W^2×L/2) and mean tumor volumes as well as volume ratios (V/Vo) were plotted against time. Mice were euthanized at the end of the treatment period. Upon termination, the mice were weighed, sacrificed and their tumors were excised. The mean tumor weight per group was calculated, and the mean value (treated tumor ratio/mean control tumor ratio× 100) was subtracted from 100% to give the tumor growth inhibition (TGI) for each group.
Treatment was initiated when tumor volumes reached […]. All groups received injections I.P. daily, except for one T8-treated group, which was treated twice per week.

[2] = test system: PC3 tumor xenografts; assay: PC3 human prostate tumor xenograft (Example 58); format: in vivo, nude NCRNU mice
Protocol: Male nude NCRNU mice, 5-6 weeks old, weighing approximately 25 grams, 6 were implanted with 2×10^6 PC3 cells into the dorsal subcutis. When the tumors were 60 mm^3, the animals were pair-matched into treatment and control groups. Each group contained 6-7 tumored mice, each of which was ear-tagged and followed individually throughout the experiment. Initial doses of peptide or vehicle control were given on the day of pair-matching (Day 0), and were administered via intraperitoneal (i.p.) injection at doses indicated. Mice were weighed weekly, and tumor measurements were taken by calipers weekly. These tumor measurements were converted to tumor volume by a well-known formula, (V=W^2×L/2), and mean tumor volumes were plotted against time. Mice were euthenized at the end of the treatment period. Upon termination, the mice were weighed, sacrificed and their tumors were excised. The mean tumor weight per group was calculated, and the value of mean treated tumor volume or volume ratio/mean control tumor volume or volume ratio×100 was subtracted from 100% to give the tumor growth inhibition (TG1) for each group. All groups received injections I.P. daily, except for two T8-treated groups, which were treated twice per week and once a week, respectively.

[3] = test system: MDAMB-435 tumor xenografts; assay: MDAMB-435 human breast tumor xenograft (Example 59); format: in vivo, nude NCRNU mice; conditions: 5.0 mg/kg i.p. daily, 3 weeks
Source text: (§1) For tests involving the MDAMB-435 model, female nude NCRNU mice, 5-6 weeks old, weighing approximately 20 grams, were implanted with 2×10^6 MDAMB-435 cells into the subaxillary mammary fat pad. For tests involving the PC3 model, male nude NCRNU mice, 5-6 weeks old, weighing approximately 25 g were implanted with 2×10^6 PC3 cells into the dorsal subcutis. When the tumors were 100 mm^3 (for the MDAMB-435 model), or 60 mm^3 (for the PC3 model), the animals were pair-matched into treatment and control groups.
(§2) Each group contained 6-7 tumored mice, each of which was ear-tagged and followed individually throughout the experiment. Initial doses of peptide or vehicle control were given on the day of pair-matching (Day 0), and were administered daily via intraperitoneal (i.p.) injection at doses indicated. Mice were weighed weekly, and tumor measurements were taken by calipers weekly, starting on Day 0. These tumor measurements were converted to tumor volume by a well-known formula, (V=W^2×L/2) and mean tumor volumes were plotted against time. Mice were euthenized at the end of the treatment period. Upon termination, the mice were weighed, sacrificed and their tumors were excised. The mean tumor weight per group was calculated, and the mean treated tumor volume/control tumor volume×100 was subtracted from 100% to give the tumor growth inhibition (TGI) for each group.

[4] = test system: PC3 tumor xenografts; assay: PC3 human prostate tumor xenograft (Example 59); format: in vivo, nude NCRNU mice; conditions: 5.0 mg/kg i.p. daily, 3 weeks
Source text: as §1, §2

[5] = test system: MDAMB-435 tumor xenografts; format: in vivo; conditions: for Final Tumor Weight ± SEM: control 333.3 ± 39.61
Protocol: Female nude NCRNU mice, 5-6 weeks old, weighing approximately 20 grams, were implanted with 2×10^6 MDAMB-435 cells in the subaxillary mammary fat pad. When the tumors were 100 mm^3, the animals were pair-matched into treatment and control groups. Each group contained 7 tumored mice, each of which was ear-tagged and followed individually throughout the experiment. Initial doses of T8 peptide or vehicle control were given on the day of pair-matching (Day 0), and were administered via intraperitoneal (i.p.) injection at 1 mg and 2.5 mg per kg animal weight. Mice were weighed twice weekly, and tumor measurements were taken by calipers twice weekly, starting on Day 1. These tumor measurements were converted to tumor volume by the well-known formula V=W2×L/2, and mean tumor volumes were plotted against time. Mice were euthenized at the end of the treatment period. Upon termination, the mice were weighed, sacrificed and their tumors were excised. The mean tumor weight per group was calculated, and the value of (mean treated tumor weight/mean control tumor weight×100) was subtracted from 100% to give the tumor growth inhibition (TGI) for each group.
Treatment was initiated when tumor volumes reached 100 mm^3. All groups received injections bid, i.p., for 26 days.

[6] = test system: mouse aortic endothelial cells (MAE); assay: Endothelial tube formation on Matrigel; format: cell-based; conditions: endothelial tube assay (FIGS. 30 and 31)
Protocol: To measure inhibition of endothelial tube formation, 320 μl of Matrigel (Collaborative Biomedical Products, Bedford, Mass., USA) was added to each well of a 24-well plate and allowed to polymerize (Grant, D. S. et al., 1994, Pathol. Res. Pract. 190:854-63). A suspension of 25,000 mouse aortic endothelial cells (MAE) in EGM-2 medium (Clonetics Corp., San Diego, Calif., USA) without antibiotic was passed into each well coated with Matrigel. The cells were treated with increasing concentrations of either Arresten, BSA, sterile PBS or the 7S domain. All assays were performed in triplicate. Cells were incubated for 24-48 hours at 37° C. and viewed using a CK2 Olympus microscope (3.3 ocular, 10× objective). The cells were then photographed using 400 DK coated TMAX film (Kodak). Cells were stained with diff-quik fixative (Sigma Chemical Company, St. Louis, Mo., USA) and photographed again. Ten fields were viewed, and the tubes counted and averaged.
Matrigel (Collaborative Biomedical Products, Bedford, Mass., USA) was added ([…]) to each well of a 24 well plate and allowed to polymerize (Grant, D. S. et al., supra). A suspension of 25,000 mouse aortic endothelial cells (MAE) in EGM-2 (Clonetics Corporation, San Diego, Calif., USA) medium without antibiotic was passed into each well coated with Matrigel. The cells were treated with either Canstatin, BSA, sterile PBS or α5-NC1 domain in increasing concentrations. All assays were performed in triplicate. Cells were incubated for 24-48 hours at 37° C. and viewed using a CK2 Olympus microscope (3.3 ocular, 10× objective). The cells were then photographed using 400 DK coated TMAX film (Kodak). Cells were stained with diff-quik fixative (Sigma Chemical Co., St. Louis, Mo., USA) and photographed again (Grant, D. S. et al., 1994, Pathol. Res. Pract. 190:854-63). Ten fields were viewed, tubes counted and averaged.
Matrigel (Collaborative Biomedical Prods., Bedford, Mass., USA) was added ([…]) to each well of a 24-well plate and allowed to polymerize (Grant, D. S. et al., 1994, Pathol. Res. Pract. 190:854-63). A suspension of 25,000 MAE cells in EGM-2 medium (Clonetics Corporation, San Diego, Calif., USA) without antibiotic was passed into each well coated with Matrigel (Grant, D. S. et al., 1994, Pathol. Res. Pract. 190:854-63). The cells were treated with either Tumstatin, BSA or 7S domain in increasing concentrations. Control cells were incubated with sterile PBS. All assays were performed in triplicate. Cells were incubated for 24-48 hours at 37° C. and viewed using a CK2 Olympus microscope (magnification of 3.3× ocular, 10× objective). The cells were then photographed using 400 DK coated TMAX film (Kodak). Cells were stained with diff-quik fixative (Sigma Chemical Co.) and photographed again (Grant, D. S. et al., 1994, Pathol. Res. Pract. 190:854-63). Ten fields were viewed, and the number of tubes were counted by two investigators unaware of the experimental protocols, and averaged.
Fragments and mutants of Arresten and Canstatin were also made according to the Pseudomonas elastase digestions of Mariyama et al. (1992, J. Biol. Chem. 267:1253-58). The digest was resolved by gel filtration HPLC and the resultant fragments were analyzed by SDS-PAGE and evaluated in the endothelial tube assay described above. These fragments included a 12 kDa fragment of Arresten, an 8 kDa fragment of Arresten, and a 10 kDa fragment of Canstatin. In addition, two fragments of Tumstatin (‘333’ and ‘334’) were generated by PCR cloning.

[7] = 5.0 mg/kg i.p. daily, 3 weeks, T7 vehicle 5.626 ± 0.38, T8 vehicle 6.278 ± 1.483
[8] = 5.0 mg/kg, printed (2x/week) again, once a week in the text

## KLFCNVNCVCNFASRNDYS (TP3 (amino acids 76-94 of SEQ ID NO10; lysine has been substituted for the phenylalanine residue at position 76 of the full-length Tumstatin molecule, and cysteine has been substituted for the aspartic acid at position 83))
[1]; 1.0 mg/kg I.P. daily
  Final Tumor Weight (V/Vo) ± SEM: 2.62 ± 0.45
[1]; 5.0 mg/kg I.P. daily
  % Tumor growth inhibition: 50.0%
  Final Tumor Weight (V/Vo) ± SEM: 1.88 ± 0.29
[2]; 5.0 mg/kg i.p. daily, 3 weeks
  % Tumor growth inhibition: 53.2%
[2]; [7]
  Final Tumor Weight (V/Vo) ± SEM: 2.940 ± 0.636

## KQRFTTMPFLFCNVNDVCNFASRNDYS [T8]
[3]
  % Tumor growth inhibition: 50.5%
[3]; control 468.5 ± 48.06
  Final Tumor Weight (V/Vo) ± SEM: 231.9 ± 27.03
[1]; 5.0 mg/kg (2x/week)
  Final Tumor Weight (V/Vo) ± SEM: 2.21 ± 0.31
[1]; 5.0 mg/kg I.P. daily
  % Tumor growth inhibition: 31%
  Final Tumor Weight (V/Vo) ± SEM: 2.60 ± 0.38
[4]
  % Tumor growth inhibition: 35.4%
[4]; control 1070.0 ± 132.5
  Final Tumor Weight (V/Vo) ± SEM: 691.4 ± 90.52
[2]; 5.0 mg/kg (2x/week)
  % Tumor growth inhibition: 8.1%
  Final Tumor Weight (V/Vo) ± SEM: 5.770 ± 1.156
[2]; 5.0 mg/kg i.p. daily, 3 weeks
  % Tumor growth inhibition: 45%
[2]; [7]
  Final Tumor Weight (V/Vo) ± SEM: 3.455 ± 1.228
[2]; [8]
  % Tumor growth inhibition: 39.5%
  Final Tumor Weight (V/Vo) ± SEM: 3.800 ± 1.602
[5]; 2.5 mg/kg, bid i.p., 26 days
  % Tumor growth inhibition: ~49% and 47.91%
  Final Tumor Weight ± SEM: 173.6 ± 23.73
[5]; Dosage 1.9 mg/kg as printed (1 mg/kg in the text), bid i.p., 26 days
  Final Tumor Weight ± SEM: 237.8 ± 31.88
[5]; mouse, in vivo
  toxicity as judged by weight change: no toxicity

B1: Tumstatin 333: residues 1 to 124 of full-length Tumstatin (SEQ ID NO:20) (protein)
chain: GLKGKRGDSGSPATWTTRGFVFTRHSQTTAIPSCPEGTVPLYSGFSFLFVQGNQRAHGQDLGTLGSCLQRFTTMPFLFCNVNDVCNFASRNDYSYWLSTPALMPMNMAPITGRALEPYISRCTV
modifications: Tumstatin 333 (amino acids 1-124 of3 SEQ ID NO10)
[6]
  ED50: 0.075 µg/mL

B2: Tumstatin 334: residues 125 to 244 of full-length Tumstatin (SEQ ID NO:21) (protein)
chain: CEGPAIAIAVHSQTTDIPPCPHGWISLWKGFSFIMFTSAGSEGTGQALASPGSCLEEFRASPFLECHGRGTCNYYSNSYSFWLASLNPERMFRKPIPSTVKAGELEKIISRCQVCMKKRH
modifications: Tumstatin 334 (amino acids 125-244 of SEQ ID NO10)
[6]
  ED50: 0.02 µg/mL
